{
  "source": "patent US12358983B2",
  "about": "“Combination of anti CD19 antibody with a BCL-2 inhibitor and uses thereof” (Incyte Corporation, priority 2016, dated 2025)",
  "system": "MEC-1 cells",
  "experiment": "Cytotoxicity (ADCC assay with NK effector cells) of MOR00208 and venetoclax alone and in combination in MEC-1 cells",
  "format": "cell-based",
  "text": "Cell lines tested: MEC-1 cells (DSMZ# ACC497). Culture conditions of cell lines used are according to supplier's information. Cell Medium: lscove's Modified Dulbecco's Medium (IMDM), Invitrogen, Cat No.: 31980; RPMI1640, Invitrogen, Cat No.: 31870; GlutaMAX, Invitrogen, CAT No.: 35050; FCS: Sigma CAT No.: F7524 LOT No.: 111M3396. NKs: RPMI1640, with GlutaMAX, Invitrogen, Cat No.: 31870, 10% FCS; Biocoll: Biochrome AG CAT No.: L6115 LOT No.: 0034D; MACS NK cell isolation kit: Miltenyi Biotec CAT No.: 130-092-657 LOT No.: 5150402327; venetoclax: Selleck Chem. CAT No.: S8048 LOT No.: S804803; FCS: Sigma CAT No.: F7524 LOT No.: 111M3396; and RefmAb33 (anti-RSV) with same Fc region as MOR00208.\nThe cytotoxic potential of MOR00208 and venetoclax alone and in combination were tested in the MEC-1 cell line (CLL). Target cell killing is measured using the following parameters: venetoclax mono treatment at concentrations of 3 μM, 6.5 μM, and 10 μM; MOR00208 mono treatment at concentrations of 0.01 pM, 0.1 pM, 1 pM, 10 pM, 100 pM and 10 nM, and the combination treatment of the listed venetoclax and MOR00208 concentrations. The following are used as controls: RefnnAb33, NK cells alone, MEC-1 cells alone or DMSO. In the venetoclax mono groups as well as in the MOR00208+venetoclax combination groups, target cells were pretreated with venetoclax or with DMSO control for 24 hours followed by removal of the dead cells prior to the ADCC assay. A dead cell removal kit was used to remove cells killed by the cytotoxic effect of venetoclax. The dead cell removal kit was implemented to mimick the removal of dead cells that also occurs in vivo and to prevent false negative interference of the dead cells with the subsequent ADCC assay. For the ADCC assay, target cells are counted and stained using CFSE at a final concentration of 1 μg/mL. For the control group, i.e. DMSO treated target cells, the effector: target (E:T) cell ratio was adjusted to 2:1, i.e. 1×10E6/nnL effector cells (NK cells) and 5×10E5/mL target cells (MEC-1 cells). […] The ADCC assays were performed as follows: using 96 well plates, 100 μL of MEC-1 target cell suspension was added per well, followed by 100 μL NK effector cell suspension per well. Mixed cell suspensions were centrifuged and resuspended in 100 μL antibody containing medium or the according control solution. The antibodies were diluted in a range of 10 nM-0.01 pM (corresponds to 1.5 μg/mL-1.5 pg/mL) in medium. The ADCC assays were incubated for 2 hours in a CO2-incubator at 37° C. After 10 minutes incubation on ice, 50 μL DAPI solution was added to each well (final concentration 1 μg/mL) and incubated for additional 10 minutes on ice. The ADCC measurements were performed on a BD FACSVerse instrument. Dead target cells were identified as DAPI positive cells.\nCombination Index (CI) calculations are completed in order to determine synergy of the combination of the exemplified anti-CD19 antibody and venetoclax as compared to MOR00208 and venetoclax alone. Such calculations are described in Ting-Chao Chou, Theoretical Basis, Experimental Design, and Computerized Simulation of Synergism and Antagonism in Drug Combination Studies, Pharmacol Rev 58:621-681 (2006), which is incorporated by reference in its entirety and Chou TC, Talalay P, Quantitative analysis of dose-effect relationships: the combined effects of multiple drugs or enzyme inhibitors. Adv Enzyme Regul 22: 27-55 (1984), which is incorporated by reference in its entirety. The methods of Chou-Talalay are carried out using the CI-isobol method.\nThe median-effect equation models the effect of an inhibitor (such as a drug) as Fa/Fu=(D/D50)^m, where D is the dose, Fa and Fu is the fraction of the system affected and unaffected by the dose D (Fa+Fu=1); D50 is the dose producing the median effect (e.g. IC50, ED50, LD50). The constant m determines the shape of the dose-effect curve.",
  "data": [
    {"substance": "MOR00208: anti-CD19 antibody; heavy chain SEQ ID NO: 14, light chain SEQ ID NO: 15", "values": [
      {"measurement": "Theoretical MOR00208 Dose", "setting": "Exp 2, same effect as MOR00208 1.50E−02 μg/mL + venetoclax 6.5 μM", "value": "* 1.00E+03^ μg/mL"},
      {"measurement": "Theoretical MOR00208 Dose", "setting": "Exp 2, same effect as MOR00208 1.50E−02 μg/mL + venetoclax 10.0 μM", "value": "* 1.00E+03^ μg/mL"},
      {"measurement": "Theoretical MOR00208 Dose", "setting": "Exp 2, same effect as MOR00208 1.50E−03 μg/mL + venetoclax 3.0 μM", "value": 0.00188, "unit": "µg/mL"},
      {"measurement": "Theoretical MOR00208 Dose", "setting": "Exp 2, same effect as MOR00208 1.50E−03 μg/mL + venetoclax 6.5 μM", "value": 0.01, "unit": "µg/mL"},
      {"measurement": "Theoretical MOR00208 Dose", "setting": "Exp 2, same effect as MOR00208 1.50E−03 μg/mL + venetoclax 10.0 μM", "value": "* 1.00E+03^ μg/mL"},
      {"measurement": "Theoretical MOR00208 Dose", "setting": "Exp 2, same effect as MOR00208 1.50E−04 μg/mL + venetoclax 3.0 μM", "value": 0.000155, "unit": "µg/mL"},
      {"measurement": "Theoretical MOR00208 Dose", "setting": "Exp 2, same effect as MOR00208 1.50E−04 μg/mL + venetoclax 6.5 μM", "value": 0.000591, "unit": "µg/mL"},
      {"measurement": "Theoretical MOR00208 Dose", "setting": "Exp 2, same effect as MOR00208 1.50E−04 μg/mL + venetoclax 10.0 μM", "value": 0.00289, "unit": "µg/mL"},
      {"measurement": "Theoretical MOR00208 Dose", "setting": "Exp 2, same effect as MOR00208 1.50E−05 μg/mL + venetoclax 3.0 μM", "value": "1.94e-05", "unit": "µg/mL"},
      {"measurement": "Theoretical MOR00208 Dose", "setting": "Exp 2, same effect as MOR00208 1.50E−05 μg/mL + venetoclax 6.5 μM", "value": 0.000109, "unit": "µg/mL"},
      {"measurement": "Theoretical MOR00208 Dose", "setting": "Exp 2, same effect as MOR00208 1.50E−05 μg/mL + venetoclax 10.0 μM", "value": 0.000725, "unit": "µg/mL"},
      {"measurement": "Theoretical MOR00208 Dose", "setting": "Exp 2, same effect as MOR00208 1.50E−06 μg/mL + venetoclax 6.5 μM", "value": "2.9e-05", "unit": "µg/mL"},
      {"measurement": "Theoretical MOR00208 Dose", "setting": "Exp 2, same effect as MOR00208 1.50E−06 μg/mL + venetoclax 10.0 μM", "value": 0.000145, "unit": "µg/mL"},
      {"measurement": "Actual MOR00208 Effect", "setting": "Exp 3, MOR00208 1.50E+00 μg/mL", "value": 74.8, "unit": "% dead cells"},
      {"measurement": "Actual MOR00208 Effect", "setting": "Exp 3, MOR00208 1.50E−02 μg/mL", "value": 69.1, "unit": "% dead cells"},
      {"measurement": "Actual MOR00208 Effect", "setting": "Exp 3, MOR00208 1.50E−03 μg/mL", "value": 45.3, "unit": "% dead cells"},
      {"measurement": "Actual MOR00208 Effect", "setting": "Exp 3, MOR00208 1.50E−04 μg/mL", "value": 26.6, "unit": "% dead cells"},
      {"measurement": "Actual MOR00208 Effect", "setting": "Exp 3, MOR00208 1.50E−05 μg/mL", "value": 18.9, "unit": "% dead cells"},
      {"measurement": "Actual MOR00208 Effect", "setting": "Exp 3, MOR00208 1.50E−06 μg/mL", "value": 11.8, "unit": "% dead cells"},
      {"measurement": "Theoretical MOR00208 Dose", "setting": "Exp 3, same effect as MOR00208 1.50E+00 μg/mL + venetoclax 3.0 μM", "value": "* 1.00E+03^ μg/mL"},
      {"measurement": "Theoretical MOR00208 Dose", "setting": "Exp 3, same effect as MOR00208 1.50E+00 μg/mL + venetoclax 6.5 μM", "value": "* 1.00E+03^ μg/mL"},
      {"measurement": "Theoretical MOR00208 Dose", "setting": "Exp 3, same effect as MOR00208 1.50E+00 μg/mL + venetoclax 10.0 μM", "value": "* 1.00E+03^ μg/mL"},
      {"measurement": "Theoretical MOR00208 Dose", "setting": "Exp 3, same effect as MOR00208 1.50E−02 μg/mL + venetoclax 3.0 μM", "value": 0.279, "unit": "µg/mL"},
      {"measurement": "Theoretical MOR00208 Dose", "setting": "Exp 3, same effect as MOR00208 1.50E−02 μg/mL + venetoclax 6.5 μM", "value": "* 1.00E+03^ μg/mL"},
      {"measurement": "Theoretical MOR00208 Dose", "setting": "Exp 3, same effect as MOR00208 1.50E−02 μg/mL + venetoclax 10.0 μM", "value": "* 1.00E+03^ μg/mL"},
      {"measurement": "Theoretical MOR00208 Dose", "setting": "Exp 3, same effect as MOR00208 1.50E−03 μg/mL + venetoclax 3.0 μM", "value": 0.00152, "unit": "µg/mL"},
      {"measurement": "Theoretical MOR00208 Dose", "setting": "Exp 3, same effect as MOR00208 1.50E−03 μg/mL + venetoclax 6.5 μM", "value": 0.00652, "unit": "µg/mL"},
      {"measurement": "Theoretical MOR00208 Dose", "setting": "Exp 3, same effect as MOR00208 1.50E−03 μg/mL + venetoclax 10.0 μM", "value": "* 1.00E+03^ μg/mL"},
      {"measurement": "Theoretical MOR00208 Dose", "setting": "Exp 3, same effect as MOR00208 1.50E−04 μg/mL + venetoclax 3.0 μM", "value": 0.000218, "unit": "µg/mL"},
      {"measurement": "Theoretical MOR00208 Dose", "setting": "Exp 3, same effect as MOR00208 1.50E−04 μg/mL + venetoclax 6.5 μM", "value": 0.000602, "unit": "µg/mL"},
      {"measurement": "Theoretical MOR00208 Dose", "setting": "Exp 3, same effect as MOR00208 1.50E−04 μg/mL + venetoclax 10.0 μM", "value": 0.0042, "unit": "µg/mL"},
      {"measurement": "Theoretical MOR00208 Dose", "setting": "Exp 3, same effect as MOR00208 1.50E−05 μg/mL + venetoclax 3.0 μM", "value": "2.9e-05", "unit": "µg/mL"},
      {"measurement": "Theoretical MOR00208 Dose", "setting": "Exp 3, same effect as MOR00208 1.50E−05 μg/mL + venetoclax 6.5 μM", "value": 0.000157, "unit": "µg/mL"},
      {"measurement": "Theoretical MOR00208 Dose", "setting": "Exp 3, same effect as MOR00208 1.50E−05 μg/mL + venetoclax 10.0 μM", "value": 0.000983, "unit": "µg/mL"},
      {"measurement": "Theoretical MOR00208 Dose", "setting": "Exp 3, same effect as MOR00208 1.50E−06 μg/mL + venetoclax 6.5 μM", "value": "2.67e-05", "unit": "µg/mL"},
      {"measurement": "Theoretical MOR00208 Dose", "setting": "Exp 3, same effect as MOR00208 1.50E−06 μg/mL + venetoclax 10.0 μM", "value": 0.000371, "unit": "µg/mL"},
      {"measurement": "Effect in ADCC cell killing assays (in words)", "setting": "very low doses of MOR00208", "value": "little or no effect"}
    ]}
  ]
}
